In US10570157B2, “Cyclic diarylboron derivatives as NLRP3 inflammasome inhibitors” (The University of Manchester, priority 2015, dated 2020):
pIC50: −log10 of the molar value.

How the values were obtained:
[1] = tested on: inflammasome / IL-1β release in THP1 cell line; assay: IL-1β release from LPS-primed, nigericin-activated THP1 cells (ELISA); type: cell-based, human; settings: for potency in the screen of NBC molecules (effect on IL-1β release): 10 μM compound, 15 min before nigericin (20 μM, 1 h), LPS-primed THP1 cells, normalised to nigericin-induced IL-1β release
Protocol: Data are the mean±SD of at least 4 separate experiments.
To screen the compounds of the invention, the human monocytic THP1 cell line was used. Cells were primed with LPS (1 μg/ml, 4 h) and then treated with vehicle (0.5% DMSO) or NBC molecule of the invention (see compounds listed below) at 10 μM for 15 min before activation of the inflammasome and IL-1β release with nigericin (20 μM, 1 h). The NBC molecule was present throughout nigericin stimulation. The effects of the molecules on IL-1β release were normalised to nigericin-induced IL-1β release in the absence of any inhibitor (FIGS. 1-3).

melting point	pIC50 ([1]; Homo sapiens, THP-1, THP1 cells, LPS primed, nigericin stimulated, FIG. 3)	Compound	potency in the screen of NBC molecules (effect on IL-1β release) [1]
167 to 169 °C (dec.)		CC(=O)C1=C(C(Cl)(Cl)Cl)N[B-](c2ccccc2)(c2ccccc2)[O+]=C1NCc1ccc2ccc3cccc4ccc1c2c34	
	6.30	CC(=O)C1=C(C(Cl)(Cl)Cl)N[B-](c2ccccc2)(c2ccccc2)[O+]=C1N [compound 14, (Z)-2-Acetyl-3-amino-4,4,4-trichlorobut-2-enamide diphenylboron]	most potent
		NC(=O)C1=C(C(Cl)(Cl)Cl)N[B-](c2ccccc2)(c2ccccc2)[O+]=C1N [compound 42, 6-Amino-5-carbamoyl-2,2-diphenyl-4-(trichloromethyl)-2,3-dihydro-1,3,2-oxazaborinin-1-ium-2-uide]	most potent
53 to 54 °C		CC(=O)C1=C(C(Cl)(Cl)Cl)N[B-](c2ccccc2)(c2ccccc2)[O+]=C1NC1CCCCC1 [compound 48, 5-Acetyl-6-(cyclohexylamino)-2,2-diphenyl-4-(trichloromethyl)-2,3-dihydro-1,3,2-oxazaborinin-1-ium-2-uide]	most potent
145 to 148 °C (dec.)		CC(=O)C1=C(C(Cl)(Cl)Cl)N[B-](c2ccc(C)cc2)(c2ccc(C)cc2)[O+]=C1N [compound 57, 5-Acetyl-6-amino-2,2-bis(p-tolyl)-4-(trichloromethyl)-2,3-dihydro-1,3,2-oxazaborinin-1-ium-2-uide]	
141 to 143 °C		CC(=O)C1=C(C(Cl)(Cl)Cl)N[B-](c2ccccc2)(c2ccc(C)cc2)[O+]=C1N (stereo not drawn) [compound 59, 5-Acetyl-6-amino-2-(phenyl)-2-(p-tolyl)-4-(trichloromethyl)-2,3-dihydro-1,3,2-oxazaborinin-1-ium-2-uide]	

Compound	melting point	pIC50 ([1]; Homo sapiens, THP-1, THP1 cells, LPS primed, nigericin stimulated, FIG. 3)	potency in the screen of NBC molecules (effect on IL-1β release) [1]
CC1=[O+][B-](c2ccccc2)(c2ccccc2)NC(C(Cl)(Cl)Cl)=C1C(=O)OC(C)(C)C [compound 41, 5-(tert-Butoxycarbonyl)-2,2-di phenyl-6-methyl-4-(trichloromethyl)-2,3-dihydro-1,3,2-oxazaborinin-1-ium-2-uide]	147 to 149 °C		
